Experimental data taken from patent US20090005745A1, “Transdermal drug delivery systems for delivering anti-inflammatory drugs” (priority 2007, published 2009).
One block for each compound: values may come before it.

Assays:
[1] = Ketoprofen plasma levels achieved by on-knee patch delivery (Example 7); assay type: in vivo, human; details: N = 22; for concentration at 2 h / concentration at 4 h / concentration at 6 h / concentration at 8 h / concentration at 10 h / concentration at 12 h / concentration at 14 h / concentration at 16 h / concentration at 18 h / concentration at 20 h / concentration at 24 h / concentration at 28 h / concentration at 32 h / concentration at 36 h / concentration at 42 h / concentration at 48 h: human, plasma, topical, Mean Ketoprofen Plasma Concentration; for concentration at 2 h: applied 12 h
Procedure: In one study session, subjects received one patch above one knee and in the other study session subjects received two patches simultaneously, one above each knee. The patches were applied for 12 hours and venous blood samples were collected during both study session.

[2] = Skin permeability using the Example 1 formulations (Example 6)
From the text: Thus, adjustment of the drug concentration can be carried out in order to achieve a desired therapeutic effect.

Mean Ketoprofen Plasma Concentration produced by unit skin-drug contact area ([1]; Single Patch, time point 2 hrs): 0.078 ng/ml/cm^2
Mean Ketoprofen Plasma Concentration produced by unit skin-drug contact area ([1]; Single Patch, time point 4 hrs): 0.366 ng/ml/cm^2
Mean Ketoprofen Plasma Concentration produced by unit skin-drug contact area ([1]; Single Patch, time point 6 hrs): 0.562 ng/ml/cm^2
Mean Ketoprofen Plasma Concentration produced by unit skin-drug contact area ([1]; Single Patch, time point 8 hrs): 0.675 ng/ml/cm^2
Mean Ketoprofen Plasma Concentration produced by unit skin-drug contact area ([1]; Single Patch, time point 10 hrs): 0.770 ng/ml/cm^2
Mean Ketoprofen Plasma Concentration produced by unit skin-drug contact area ([1]; Single Patch, time point 12 hrs): 0.703 ng/ml/cm^2
Mean Ketoprofen Plasma Concentration produced by unit skin-drug contact area ([1]; Single Patch, time point 14 hrs): 0.464 ng/ml/cm^2
Mean Ketoprofen Plasma Concentration produced by unit skin-drug contact area ([1]; Single Patch, time point 16 hrs): 0.282 ng/ml/cm^2
Mean Ketoprofen Plasma Concentration produced by unit skin-drug contact area ([1]; Single Patch, time point 18 hrs): 0.213 ng/ml/cm^2
Mean Ketoprofen Plasma Concentration produced by unit skin-drug contact area ([1]; Single Patch, time point 20 hrs): 0.160 ng/ml/cm^2
Mean Ketoprofen Plasma Concentration produced by unit skin-drug contact area ([1]; Single Patch, time point 24 hrs): 0.095 ng/ml/cm^2
Mean Ketoprofen Plasma Concentration produced by unit skin-drug contact area ([1]; Single Patch, time point 28 hrs): 0.058 ng/ml/cm^2
Mean Ketoprofen Plasma Concentration produced by unit skin-drug contact area ([1]; Single Patch, time point 32 hrs): 0.035 ng/ml/cm^2
Mean Ketoprofen Plasma Concentration produced by unit skin-drug contact area ([1]; Single Patch, time point 36 hrs): 0.028 ng/ml/cm^2
Mean Ketoprofen Plasma Concentration produced by unit skin-drug contact area ([1]; Single Patch, time point 42 hrs): 0.023 ng/ml/cm^2
Mean Ketoprofen Plasma Concentration produced by unit skin-drug contact area ([1]; Single Patch, time point 48 hrs): 0.019 ng/ml/cm^2
Mean Ketoprofen Plasma Concentration ([1]; Two Patches Dose-Normalized to one patch, time point 2 hrs): 3.9 ng/mL
Mean Ketoprofen Plasma Concentration ([1]; Two Patches Dose-Normalized to one patch, time point 4 hrs): 44.6 ng/mL
Mean Ketoprofen Plasma Concentration ([1]; Two Patches Dose-Normalized to one patch, time point 48 hrs): 3.1 ng/mL
Mean Ketoprofen Plasma Concentration produced by unit skin-drug contact area ([1]; Two Patches, time point 2 hrs): 0.023 ng/ml/cm^2
Mean Ketoprofen Plasma Concentration produced by unit skin-drug contact area ([1]; Two Patches, time point 4 hrs): 0.259 ng/ml/cm^2
Mean Ketoprofen Plasma Concentration produced by unit skin-drug contact area ([1]; Two Patches, time point 6 hrs): 0.512 ng/ml/cm^2
Mean Ketoprofen Plasma Concentration produced by unit skin-drug contact area ([1]; Two Patches, time point 8 hrs): 0.630 ng/ml/cm^2
Mean Ketoprofen Plasma Concentration produced by unit skin-drug contact area ([1]; Two Patches, time point 10 hrs): 0.714 ng/ml/cm^2
Mean Ketoprofen Plasma Concentration produced by unit skin-drug contact area ([1]; Two Patches, time point 12 hrs): 0.665 ng/ml/cm^2
Mean Ketoprofen Plasma Concentration produced by unit skin-drug contact area ([1]; Two Patches, time point 14 hrs): 0.454 ng/ml/cm^2
Mean Ketoprofen Plasma Concentration produced by unit skin-drug contact area ([1]; Two Patches, time point 16 hrs): 0.280 ng/ml/cm^2
Mean Ketoprofen Plasma Concentration produced by unit skin-drug contact area ([1]; Two Patches, time point 18 hrs): 0.199 ng/ml/cm^2
Mean Ketoprofen Plasma Concentration produced by unit skin-drug contact area ([1]; Two Patches, time point 20 hrs): 0.152 ng/ml/cm^2
Mean Ketoprofen Plasma Concentration produced by unit skin-drug contact area ([1]; Two Patches, time point 24 hrs): 0.090 ng/ml/cm^2
Mean Ketoprofen Plasma Concentration produced by unit skin-drug contact area ([1]; Two Patches, time point 28 hrs): 0.054 ng/ml/cm^2
Mean Ketoprofen Plasma Concentration produced by unit skin-drug contact area ([1]; Two Patches, time point 32 hrs): 0.036 ng/ml/cm^2
Mean Ketoprofen Plasma Concentration produced by unit skin-drug contact area ([1]; Two Patches, time point 36 hrs): 0.029 ng/ml/cm^2
Mean Ketoprofen Plasma Concentration produced by unit skin-drug contact area ([1]; Two Patches, time point 42 hrs): 0.021 ng/ml/cm^2
Mean Ketoprofen Plasma Concentration produced by unit skin-drug contact area ([1]; Two Patches, time point 48 hrs): 0.018 ng/ml/cm^2
concentration at 2 h ([1]; 136 mg, Single Patch (136 mg, 172 cm^2, heated) above one knee, time point 2 hrs): 13.5 ng/mL
concentration at 4 h ([1]; 136 mg, Single Patch, time point 4 hrs): 62.9 ng/mL
concentration at 6 h ([1]; 136 mg, Single Patch, time point 6 hrs): 96.7 ng/mL
concentration at 8 h ([1]; 136 mg, Single Patch, time point 8 hrs): 116 ng/mL
concentration at 10 h ([1]; 136 mg, Single Patch, time point 10 hrs): 132 ng/mL
concentration at 12 h ([1]; 136 mg, Single Patch, time point 12 hrs): 121 ng/mL
concentration at 14 h ([1]; 136 mg, Single Patch, time point 14 hrs): 79.8 ng/mL
concentration at 16 h ([1]; 136 mg, Single Patch, time point 16 hrs): 48.5 ng/mL
concentration at 18 h ([1]; 136 mg, Single Patch, time point 18 hrs): 36.3 ng/mL
concentration at 20 h ([1]; 136 mg, Single Patch, time point 20 hrs): 27.6 ng/mL
concentration at 24 h ([1]; 136 mg, Single Patch, time point 24 hrs): 16.4 ng/mL
concentration at 28 h ([1]; 136 mg, Single Patch, time point 28 hrs): 10 ng/mL
concentration at 32 h ([1]; 136 mg, Single Patch, time point 32 hrs): 6.1 ng/mL
concentration at 36 h ([1]; 136 mg, Single Patch, time point 36 hrs): 4.9 ng/mL
concentration at 42 h ([1]; 136 mg, Single Patch, time point 42 hrs): 3.9 ng/mL
concentration at 48 h ([1]; 136 mg, Single Patch, time point 48 hrs): 3.2 ng/mL
concentration at 6 h ([1]; 272 mg, Two Patches Dose-Normalized to one patch, time point 6 hrs): 88.1 ng/mL
concentration at 8 h ([1]; 272 mg, Two Patches Dose-Normalized to one patch, time point 8 hrs): 108 ng/mL
concentration at 10 h ([1]; 272 mg, Two Patches Dose-Normalized to one patch, time point 10 hrs): 123 ng/mL
concentration at 12 h ([1]; 272 mg, Two Patches Dose-Normalized to one patch, time point 12 hrs): 114 ng/mL
concentration at 14 h ([1]; 272 mg, Two Patches Dose-Normalized to one patch, time point 14 hrs): 78.1 ng/mL
concentration at 16 h ([1]; 272 mg, Two Patches Dose-Normalized to one patch, time point 16 hrs): 48.2 ng/mL
concentration at 18 h ([1]; 272 mg, Two Patches Dose-Normalized to one patch, time point 18 hrs): 34.2 ng/mL
concentration at 20 h ([1]; 272 mg, Two Patches Dose-Normalized to one patch, time point 20 hrs): 26.1 ng/mL
concentration at 24 h ([1]; 272 mg, Two Patches Dose-Normalized to one patch, time point 24 hrs): 15.5 ng/mL
concentration at 32 h ([1]; 272 mg, Two Patches Dose-Normalized to one patch, time point 32 hrs): 6.2 ng/mL
concentration at 36 h ([1]; 272 mg, Two Patches Dose-Normalized to one patch, time point 36 hrs): 5 ng/mL
concentration at 42 h ([1]; 272 mg, Two Patches Dose-Normalized to one patch, time point 42 hrs): 3.6 ng/mL
concentration at 2 h ([1]; 272 mg, Two Patches simultaneously, one above each knee, time point 2 hrs): 7.8 ng/mL
concentration at 4 h ([1]; 272 mg, Two Patches, time point 4 hrs): 89.2 ng/mL
concentration at 6 h ([1]; 272 mg, Two Patches, time point 6 hrs): 176 ng/mL
concentration at 8 h ([1]; 272 mg, Two Patches, time point 8 hrs): 217 ng/mL
concentration at 10 h ([1]; 272 mg, Two Patches, time point 10 hrs): 246 ng/mL
concentration at 12 h ([1]; 272 mg, Two Patches, time point 12 hrs): 229 ng/mL
concentration at 14 h ([1]; 272 mg, Two Patches, time point 14 hrs): 156 ng/mL
concentration at 16 h ([1]; 272 mg, Two Patches, time point 16 hrs): 96.3 ng/mL
concentration at 18 h ([1]; 272 mg, Two Patches, time point 18 hrs): 68.4 ng/mL
concentration at 20 h ([1]; 272 mg, Two Patches, time point 20 hrs): 52.2 ng/mL
concentration at 24 h ([1]; 272 mg, Two Patches, time point 24 hrs): 31 ng/mL
concentration at 28 h ([1]; 272 mg, Two Patches, time point 28 hrs): 18.6 ng/mL
concentration at 32 h ([1]; 272 mg, Two Patches, time point 32 hrs): 12.3 ng/mL
concentration at 36 h ([1]; 272 mg, Two Patches, time point 36 hrs): 9.9 ng/mL
concentration at 42 h ([1]; 272 mg, Two Patches, time point 42 hrs): 7.2 ng/mL
concentration at 48 h ([1]; 272 mg, Two Patches, time point 48 hrs): 6.2 ng/mL
Compound: CC(C(=O)O)c1cccc(C(=O)c2ccccc2)c1 (centres unmarked) [Ketoprofen]

Skin permeability compared with ketoprofen [2]: less skin permeable
Compound: O=C(O)Cc1ccccc1Nc1c(Cl)cccc1Cl [diclofenac]
